# Assay results as given in US7960614B2, “Plant transformation and selection” (Arborgen, LLC, priority 2003, dated 2011).
# Key:
# [1] = test system: loblolly cell lines; experiment: asa2 (pWVC33) selection on Geneticin, 5MT or AMT, PCR check (Example 32); format: cell-based, Pinus taeda; conditions: Geneticin 15 mg/L with casein hydrolysate, 5MT or AMT 30 mg/L with AA4; for PCR confirmed positive (number of lines): of 12, 8, 22 lines PCR tested
# Method: Two loblolly cell lines were prepared for transformation using the method of Example 28, and co-cultivated with Agrobacterium tumefaciens transformed with pWVC33 (FIG. 7) as described in Example 28. Following eradication of Agrobacterium, each cell line was equally divided onto 6 plates each of 5 different selection media containing either casein hydrolysate and Geneticin at 15 mg/L, or amino acid mixture AA4 and either 5-methyltryptophan (5MT) at 30 or 50 mg/L or […] (AMT) at 30 or 50 mg/L. The results are show in FIG. 12. Putatively transformed sublines grow on Geneticin-containing plates and on both selection treatments where 30 mg/L of the methylated tryptophan selective analog was incorporated.
# [2] = test system: E. camaldulensis clone C9; experiment: Geneticin selection of NPTII transformants, GUS staining of resistant shoot lines; format: cell-based, Eucalyptus camaldulensis; conditions: 8 weeks selection
# Method: Similar to the methods disclosed in Example 16, E. camaldulensis clone C9 was transformed with GV2260 harboring p35SGUSINT. Following regeneration, the explants were transferred to a selection medium containing geneticin (30, 40, 50, or 60 mg/l geneticin). For geneticin at levels of 30 and 50 mg/l, additional sets of explants were pre-cultured for 1 day. After 8 weeks on selection medium, samples of geneticin-resistant shoot cultures in the early developmental stage were collected and stained with x-gluc for GUS expression.
# [3] = test system: Eucalyptus grandis x urophylla Clone IPB1; experiment: Geneticin selection of NPTII transformants, GUS staining of resistant calli; format: cell-based; conditions: about 10 weeks
# Method: Before transforming, the explants were pre-cultured for 4 days on a medium having auxin enrichment (IAA at 2 mg/l instead of 0.1 mg/l NAA in standard regeneration medium) and acetosyringone (250 μM). As described in Example 6, the explants were infected with Agrobacterium, co-cultivated on the same medium for 3 days, and then transferred to a regeneration medium supplemented with 400 mg/l timentin for 4 days. Then, the explants were transferred to a selection medium containing geneticin instead of an herbicide selection agent.
# The transformants were placed on geneticin selection medium containing geneticin (either 20 or 30 mg/l). Instead of the 3- or 4-week transfer cycles used with an herbicide selection medium, the explants were transferred bi-weekly to fresh geneticin medium. After about 10 weeks of growth on geneticin selection medium, samples of geneticin-resistant calli were collected and stained with x-gluc for GUS expression, as described in Example 7. The following data summarizes GUS expression in geneticin-selected transformants.
# [4] = test system: Loblolly pine (Pinus taeda) and hybrid pine (P. taeda×P. rigida) embryogenic cell lines; experiment: Selection of co-bombarded (als + nptII) pine embryogenic cells on Geneticin or Oust; format: cell-based
# Description: This example describes the selection of genetically transformed pine, using a selectable marker encoding ALS on selection media containing a sulfonylurea herbicide, at a level sufficient for selection in model plants. In some experiments, including the one described in the following example, a vector that would express the als gene in the plant tissue was co-bombarded into the cells with a vector that would express the nptII gene in the plant tissue, and the co-bombarded cells were then divided into two groups and placed onto selection medium containing either a sulfonylurea herbicide or Geneticin, so that the frequency with which transformants are selected on Geneticin could be compared with the frequency of selection on herbicide.
# Twenty identical replicates from the suspension cells of each of these three pine lines were prepared for gene transfer according to the method described in U.S. Pat. No. 6,518,485. Polyester membrane supports of a defined weight were sterilized by autoclaving and placing in separate sterile Buchner funnels, and approximately 1.5 ml of uniform pine embryogenic suspension at SCV 30 was pipetted onto each support such that the embryogenic tissue was evenly distributed over its surface. […]
# [5] = test system: E. grandis clone IP1; experiment: Geneticin selection of NPTII transformants, GUS staining of resistant shoot lines; format: cell-based, Eucalyptus grandis; conditions: 8 weeks
# Method: (Arabidopsis ActinII.:GUSINT, constitutive::NPTII). As described in Example 4, leaf explants from E. grandis clone IP1 were pre-cultured on a pre-culture medium comprising auxin and an Agrobacterium inducer. The explants were transformed with Agrobacterium and co-cultivated for 3 days on a pre-culture medium with auxin enrichment (IAA at 2 mg/l, instead of 0.1 mg/l NAA in standard regeneration medium) and acetosyringone (250 μM). Then the explants were transferred to Euc Regeneration medium supplemented with 400 mg/l timentin for 4 days. The explants were then transferred to selection medium containing geneticin (30 or 40 mg/l geneticin). After 8 weeks on selection medium, samples of geneticin-resistant shoot cultures in the early developmental stage were collected and stained with x-gluc for GUS expression.
# [6] = test system: loblolly pine and loblolly x pitch pine hybrid embryogenic lines; experiment: Growth of pine embryogenic lines on Oust with and without casein hydrolysate (FIG. 9); format: cell-based, Pinus taeda; loblolly x pitch pine hybrid; conditions: Oust at 0, 10, 20, 40, and 80 nM, DCR2 with and without casein hydrolysate, twelve weeks
# Method: Six embryogenic lines, two each from three different families (two genetically diverse loblolly pine families and a family of a loblolly x pitch pine hybrid), were evaluated. Uniform suspension cultures from each of the genetically different tissue culture lines were established as described in Example 26. Three identical replicates from the suspension cells of each of these six lines were plated as described in Example 26 on each of ten formulations of DCR2 medium, namely with and without casein hydrolysate, and containing the herbicide Oust at 0, 10, 20, 40, and 80 nM. The plates were sealed and incubated under the same conditions used for pre-experimental initiation, maintenance and selection steps in Example 26. Every three weeks the culture was transferred to fresh medium of the same formulation as previously provided, following weighing under sterile conditions of the tissue on the polyester support.
# [7] = test system: E. dunnii clone DUN00001; experiment: Shoot regeneration from Agrobacterium-inoculated internodal explants, zeatin/NAA optimisation; format: cell-based, Eucalyptus dunnii
# Method: This example teaches a method to optimize the levels of growth regulators for shoot regeneration from the recalcitrant commercial E. dunnii clone DUN00001 or other recalcitrant clones. Internodal explants are prepared as described in Example 1 and are inocultated with Agrobacterium as described in Example 5. Following co-cultivation, transformed shoot clumps are transferred to a shoot regeneration medium. […] To optimize the auxin and cytokinin concentrations in the shoot regeneration media, several combinations of hormones were evaluated as a function of the production of elongated shoots. […] During the initial screening, the zeatin levels were 10, 1, and 0.1 mg/l and the NAA levels were 0.01, 0.1 and 1 mg/l. […] The following data summarize the attempt to optimize the level of zeatin and NAA.
smiles,measurement,setting,value
"CC(c1c[nH]c2ccccc12)[C@H](N)C(=O)O (stereo partly drawn) [AMT30, β-methyltryptophan]",False positive Frequency,[1],0.09
same,PCR confirmed positive (number of lines),[1],20
CN[C@@H]1[C@@H](O)[C@@H](O[C@@H]2[C@@H](O)[C@H](O[C@H]3O[C@H]([C@@H](C)O)[C@@H](O)[C@H](O)[C@H]3N)[C@@H](N)C[C@H]2N)OC[C@]1(C)O [Geneticin],% GUS^+ Shoots,"[2]; Geneticin 30 mg/l, pre-culture 1 day",37.9%
same,No. GUS^+ Shoot Lines,"[2]; Geneticin 30 mg/l, pre-culture 1 day, 29 lines stained",11
same,% GUS^+ Shoots,"[2]; Geneticin 30 mg/l, pre-culture 4 days",12.8%
same,No. GUS^+ Shoot Lines,"[2]; Geneticin 30 mg/l, pre-culture 4 days, 39 lines stained",5
same,% GUS^+ Shoots,"[2]; Geneticin 40 mg/l, pre-culture 4 days",11.8%
same,No. GUS^+ Shoot Lines,"[2]; Geneticin 40 mg/l, pre-culture 4 days, 68 lines stained",8
same,% GUS^+ Shoots,"[2]; Geneticin 50 mg/l, pre-culture 1 day",50%
same,No. GUS^+ Shoot Lines,"[2]; Geneticin 50 mg/l, pre-culture 1 day, 12 lines stained",6
same,% GUS^+ Shoots,"[2]; Geneticin 50 mg/l, pre-culture 4 days",19.4%
same,No. GUS^+ Shoot Lines,"[2]; Geneticin 50 mg/l, pre-culture 4 days, 31 lines stained",7
same,% GUS^+ Shoots,"[2]; Geneticin 60 mg/l, pre-culture 4 days",50%
same,No. GUS^+ Shoot Lines,"[2]; Geneticin 60 mg/l, pre-culture 4 days, 8 lines stained",4
same,No. GUS^+ Calli,"[3]; Geneticin 20 mg/l, regular shaded light, 5 calli stained",0
same,No. GUS^+ Calli,"[3]; Geneticin 30 mg/l, dark, 6 calli stained",4
same,No. GUS^+ Calli,"[3]; Geneticin 30 mg/l, regular shaded light, 17 calli stained",13
same,putative transgenic sublines in which stable transformation is verified,"[4]; selection on Geneticin 15 mg/L, 12 sublines tested",100%
same,% GUS^+ Shoots,"[5]; explant source rooted plants, Geneticin 30 mg/l",0%
same,No. GUS^+ Shoot Lines,"[5]; explant source rooted plants, Geneticin 30 mg/l, 1 line stained",0
same,% GUS^+ Shoots,"[5]; explant source shoot cluster, Geneticin 30 mg/l",50%
same,No. GUS^+ Shoot Lines,"[5]; explant source shoot cluster, Geneticin 30 mg/l, 16 lines stained",8
same,% GUS^+ Shoots,"[5]; explant source shoot cluster, Geneticin 40 mg/l",57%
same,No. GUS^+ Shoot Lines,"[5]; explant source shoot cluster, Geneticin 40 mg/l, 7 lines stained",4
same,False positive Frequency,[1],0.08
same,PCR confirmed positive (number of lines),[1],11
COC(=O)c1ccccc1S(=O)(=O)NC(=O)Nc1nc(C)cc(C)n1 [Oust],putative transgenic sublines that were false positives,"[4]; selection on 50 nM Oust, medium with casein hydrolysate",Eighty
same,"success as selective agent (stopping cell growth), FIG. 9",[6],successful as a selective agent at multiple concentrations only in the absence of casein hydrolysate
"C/C(=C\CNc1ncnc2[nH]cnc12)CO [Zeatin, zeatin]","shoot induction, comparison of levels in two experiments",[7]; Table 5 experiments,zeatin at 5 mg/l is better than 10 mg/l
same,"shoot regeneration, initial screening of levels","[7]; zeatin 10, 1, and 0.1 mg/l with NAA 0.01, 0.1 and 1 mg/l",better results at 10 mg/l than at 1 mg/l or 0.1 mg/l
